Experimental data taken from ChEMBL document CHEMBL3091400, “The discovery of novel N-(2-pyrimidinylamino) benzamide derivatives as potent hedgehog signaling pathway inhibitors” (Bioorg Med Chem Lett, 2013).
pIC50: −log10 of the molar value.

What was measured:
[1] = molecular target: Sonic hedgehog protein (Mus musculus, UniProt Q62226); assay: Inhibition of SHH signaling pathway in mouse NIH3T3 cells measured after 48 hrs by Gli-luciferase reporter assay; assay type: cell-based
[2] = Half life in Sprague-Dawley rat at 5 mg/kg, po; assay type: ADME, organism-based; design: dose 5 mg/kg, route oral; details: in vivo
[3] = Mean residence time in Sprague-Dawley rat at 5 mg/kg, po; assay type: ADME, organism-based; design: dose 5 mg/kg, route oral; details: in vivo
[4] = Clearance in Sprague-Dawley rat at 5 mg/kg, po; assay type: ADME, organism-based; design: dose 5 mg/kg, route oral; details: in vivo
[5] = tested on: Rattus norvegicus; assay: Volume of distribution at steady state in Sprague-Dawley rat at 5 mg/kg, po; assay type: ADME, organism-based; design: dose 5 mg/kg, route oral; details: in vivo
[6] = AUC in Sprague-Dawley rat at 5 mg/kg, po; assay type: ADME, organism-based; design: dose 5 mg/kg, route oral; details: plasma
[7] = Cmax in Sprague-Dawley rat at 5 mg/kg, po; assay type: ADME, organism-based; design: dose 5 mg/kg, route oral; details: in vivo
[8] = Oral bioavailability in Sprague-Dawley rat at 5 mg/kg; assay type: ADME, organism-based; details: in vivo
[9] = Half life in Sprague-Dawley rat at 1 mg/kg, iv; assay type: ADME, organism-based; design: dose 1 mg/kg, route intravenous; details: in vivo
[10] = tested on: Rattus norvegicus; assay: Mean residence time in Sprague-Dawley rat at 1 mg/kg, iv; assay type: ADME, organism-based; design: dose 1 mg/kg, route intravenous; details: in vivo
[11] = tested on: Rattus norvegicus; assay: Clearance in Sprague-Dawley rat at 1 mg/kg, iv; assay type: ADME, organism-based; design: dose 1 mg/kg, route intravenous; details: in vivo
[12] = tested on: Rattus norvegicus; assay: Volume of distribution at steady state in Sprague-Dawley rat at 1 mg/kg, iv; assay type: ADME, organism-based; design: dose 1 mg/kg, route intravenous; details: in vivo
[13] = AUC in Sprague-Dawley rat at 1 mg/kg, iv; assay type: ADME, organism-based; design: dose 1 mg/kg, route intravenous; details: plasma
[14] = Cmax in Sprague-Dawley rat at 1 mg/kg, iv; assay type: ADME, organism-based; design: dose 1 mg/kg, route intravenous; details: in vivo

Chain of Sonic hedgehog protein (Q62226 25-198 limits assumed): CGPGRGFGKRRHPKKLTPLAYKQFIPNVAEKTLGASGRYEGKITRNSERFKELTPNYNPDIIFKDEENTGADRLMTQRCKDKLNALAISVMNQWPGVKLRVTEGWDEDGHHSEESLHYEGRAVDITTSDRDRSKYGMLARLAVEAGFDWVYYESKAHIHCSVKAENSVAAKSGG

SMILES	pIC50 [1]	further results
Cc1cnc(Nc2ccc(C(=O)Nc3c(C)cccc3C)cc2)nc1-c1ccncc1	9.27	
Cc1cccc(C)c1NC(=O)c1ccc(Nc2nc(C)c(C)c(-c3ccc(OC(F)(F)F)cc3)n2)cc1	8.80	
Cc1cccc(C)c1NC(=O)c1ccc(Nc2nccc(-c3ccc(OC(F)(F)F)cc3)n2)cc1	8.92	
Cc1cc(-c2ccc(OC(F)(F)F)cc2)nc(Nc2ccc(C(=O)Nc3c(C)cccc3C)cc2)n1	8.85	
Cc1cccc(C)c1NC(=O)c1ccc(Nc2ncc(F)c(-c3ccc(OC(F)(F)F)cc3)n2)cc1	8.80	
CCCc1cc(-c2ccc(OC(F)(F)F)cc2)nc(Nc2ccc(C(=O)Nc3c(C)cccc3C)cc2)n1	9.10	
CCc1cnc(Nc2ccc(C(=O)Nc3c(C)cccc3C)cc2)nc1-c1ccc(OC(F)(F)F)cc1	8.28	
Cc1cccc(C)c1NC(=O)c1ccc(Nc2cc(-c3ccc(OC(F)(F)F)cc3)ccn2)cc1	8.80	
Cc1cccc(C)c1NC(=O)c1ccc(Nc2cccc(-c3ccc(OC(F)(F)F)cc3)n2)cc1	7.63	
Cc1cccc(C)c1NC(=O)c1ccc(Nc2ncc(C(F)(F)F)c(-c3ccc(OC(F)(F)F)cc3)n2)cc1	9.28	
Cc1cnc(Nc2ccc(C(=O)Nc3c(C)cccc3C)cc2)nc1-c1cccnc1	< 6.30	
Cc1cnc(Nc2ccc(C(=O)Nc3c(C)cccc3C)cc2)nc1-c1cnn(C)c1	7.97	
Cc1cnc(Nc2ccc(C(=O)Nc3c(C)cccc3C)cc2)nc1-c1ccoc1	7.80	
Cc1cnc(Nc2ccc(C(=O)Nc3c(C)cccc3C)cc2)nc1C1CC1	7.48	
Cc1cnc(Nc2ccc(C(=O)Nc3c(C)cccc3C)cc2)nc1C	6.82	
Cc1cnc(Nc2ccc(C(=O)Nc3c(C)cccc3C)cc2)nc1Cc1ccccc1	7.46	
Cc1cnc(N(C)c2ccc(C(=O)Nc3c(C)cccc3C)cc2)nc1-c1ccc(OC(F)(F)F)cc1	8.57	
Cc1ccccc1C(=O)Nc1ccc(Nc2ncc(C)c(-c3ccc(OC(F)(F)F)cc3)n2)cc1	7.38	
Cc1ccccc1NC(=O)c1ccc(Nc2ncc(C)c(-c3ccc(OC(F)(F)F)cc3)n2)cc1	9.00	
Cc1ccc(-c2cnn(C)c2)cc1NC(=O)c1ccc(Nc2ncc(C)c(-c3ccc(OC(F)(F)F)cc3)n2)cc1	8.92	

SMILES	pIC50 [1]	further results
Cc1cnc(Nc2ccc(C(=O)Nc3ccc(CN4CCN(C)CC4)cc3)cc2)nc1-c1ccc(OC(F)(F)F)cc1	6.93	
Cc1cnc(Nc2ccc(C(=O)Nc3ccccc3CN3CCN(C)CC3)cc2)nc1-c1ccc(OC(F)(F)F)cc1	6.45	
Cc1cnc(Nc2ccc(C(=O)NC(C)C)cc2)nc1-c1ccc(OC(F)(F)F)cc1	7.14	
Cc1cnc(Nc2ccc(C(=O)NC3CCCCC3)cc2)nc1-c1ccc(OC(F)(F)F)cc1	8.66	
Cc1ccc(CN(C)Cc2ccccc2)cc1NC(=O)c1ccc(Nc2ncc(C)c(-c3ccc(OC(F)(F)F)cc3)n2)cc1	8.96	
Cc1ccc(CN(C)Cc2ccccc2)cc1NC(=O)c1ccc(Nc2ncc(C)c(C)n2)cc1	7.00	
Cc1cccc(C)c1NC(=O)c1ccc(Nc2ncc(C3CC3)c(-c3ccc(OC(F)(F)F)cc3)n2)cc1	8.89	
Cc1cnc(Nc2ccc3[nH]ncc3c2)nc1-c1ccc(OC(F)(F)F)cc1	6.90	
Cc1cnc(Nc2ccc(N3C[C@@H](C)O[C@@H](C)C3)nc2)nc1-c1ccc(OC(F)(F)F)cc1	< 6.30	
Cc1cnc(Nc2ccc(C(=O)Nc3c(C)cccc3C)cc2)nc1-c1ccc(OC(F)(F)F)cc1	8.89	half-life [2]: 7 h; MRT [3]: 5.1 h; CL/F [4]: 46.6 mL/min/kg; Vdss [5]: 27.738 L/kg; AUC [6]: 1700 ng·h/mL; Cmax [7]: 342 ng/mL; bioavailability [8]: 36%; half-life [9]: 10.3 h; MRT [10]: 4 h; CL [11]: 16.73 mL/min/kg; Vdss [12]: 14.898 L/kg; AUC [13]: 915 ng·h/mL; Cmax [14]: 764 ng/mL
Cc1cnc(Nc2ccc(C(=O)Nc3c(C)cccc3C)cc2)nc1-c1cccc(OC(F)(F)F)c1	8.92	
Cc1cnc(Nc2ccc(C(=O)Nc3c(C)cccc3C)cc2)nc1-c1ccccc1OC(F)(F)F	< 6.30	
Cc1cnc(Nc2ccc(C(=O)Nc3c(C)cccc3C)cc2)nc1-c1ccc(OC(F)(F)F)c(F)c1	6.80	
Cc1cnc(Nc2ccc(C(=O)Nc3c(C)cccc3C)cc2)nc1-c1ccc(C#N)cc1	8.55	
Cc1cnc(Nc2ccc(C(=O)Nc3c(C)cccc3C)cc2)nc1-c1ccc(N2CCOCC2)cc1	7.69	
Cc1cnc(Nc2ccc(C(=O)Nc3c(C)cccc3C)cc2)nc1-c1ccc(F)cc1	8.66	
Cc1ccc(-c2nc(Nc3ccc(C(=O)Nc4c(C)cccc4C)cc3)ncc2C)cc1	< 6.30	
Cc1cnc(Nc2ccc(C(=O)Nc3c(C)cccc3C)cc2)nc1-c1ccccc1	8.89	
Cc1c(C(=O)Nc2ccc(N3C[C@@H](C)O[C@@H](C)C3)nc2)cccc1-c1ccc(OC(F)(F)F)cc1 [SONIDEGIB]	8.26	
CS(=O)(=O)c1ccc(C(=O)Nc2ccc(Cl)c(-c3ccccn3)c2)c(Cl)c1 [VISMODEGIB]	8.14	
